# In patent publication US20190358181A1, “METHODS FOR AUTISM SPECTRUM DISORDER PHARMACOTHERAPY” (priority 2017, published 2019):
# Test system: 610 metabolites from 63 biochemical pathways
# Experiment: Targeted broad-spectrum plasma metabolomic analysis (LC-MS/MS), paired pre-infusion vs post-infusion (2-days and 6-weeks)
# Format: in vivo, human
# Conditions: for Linear Ratio / VIP Score / Z Abs / Z Score: plasma
# Description: Targeted, broad-spectrum, plasma metabolomic analysis of 610 metabolites from 63 biochemical pathways was performed by high performance liquid chromatography and tandem mass spectrometry (LC-MS/MS) on the samples collected from patients in Example 1. Venous blood was collected between the hours of 8 am and 5 pm, at least 3 hours after the last meal, into lithium-heparin vacutainer tubes (BD #367884). Plasma was separated by centrifugation at 900 g×10 minutes at room temperature within one hour of collection. The resulting fresh lithium-heparin plasma was transferred to labeled 1.2 ml or 2.0 ml externally threaded cryotubes with a minimum headspace air gap for storage at −80° C. for analysis. Samples were analyzed on an AB SCIEX QTRAP 5500 triple quadrupole mass spectrometer equipped with a Turbo V electrospray ionization (ESI) source, Shimadzu LC-20A UHPLC system, and a PAL CTC autosampler. Typically, 90 μl of plasma was thawed on ice and transferred to a 1.7 ml Eppendorf tube. Five (5.0) μl of a cocktail containing 25-35 commercial stable isotope internal standards, and 5.0 μl of 57 stable isotope internal standards that were custom-synthesized in E. coli NCM3722, Caenorhabditis elegans N2, and Komagataella phaffii (ATCC 76273; formerly known as Pichia pastoris) by metabolic labeling with 13C-glucose and 13C-bicarbonate, were added, mixed, and incubated for 10 min at 20° C. to permit small molecules and vitamins in the internal standards to associate with plasma binding proteins. Macromolecules (protein, DNA, RNA, glycans, etc.) were precipitated by extraction with 4 volumes (400 μl) of cold (−20° C.), acetonitrile:methanol (50:50) (LCMS grade, Cat #LC015-2.5 and GC230-4, Burdick & Jackson, Honeywell), vortexed vigorously, and incubated on crushed ice for 10 min, then removed by centrifugation at 16,000 g×10 min at 4° C. The supernatants containing the extracted metabolites and internal standards in the resulting 40:40:20 solvent mix of acetonitrile:methanol:water were transferred to labeled cryotubes and stored at −80° C. for LCMS/MS analysis.
# LC-MS/MS analysis was performed by scheduled multiple reaction monitoring (sMRM) under Analyst v1.6.2 software control in both negative and positive mode with rapid polarity switching (50 ms). Nitrogen was used for curtain gas (set to 30), collision gas (set to high), ion source gas 1 and 2 (set to 35). The source temperature was 500° C. Spray voltage was set to −4500 V in negative mode and 5500 V in positive mode. The values for Q1 and Q3 mass-to-charge ratios (m/z), declustering potential (DP), entrance potential (EP), collision energy (CE), and collision cell exit potential (CXP) were determined and optimized for each MRM for each metabolite. Ten microliters of extract was injected by PAL CTC autosampler via a 10 μl stainless steel loop into a 250 mm×2.0 mm, 4 μm polymer based NH2 HPLC column (Asahipak NH2P-40 2E, Showa Denko America, Inc., NY) held at 25° C. for chromatographic separation. The mobile phase was solvent A: 95% water with 20 mM (NH4)2CO3 (Sigma, Fluka Cat #74415-250G-F), 5% acetonitrile, and 38 mM NH4OH (Sigma, Fluka Cat #17837-100ML), final pH 9.75; solvent B: 100% acetonitrile. Separation was achieved using the following gradient: 0-3.5 min: 95% B, 3.6-8 min: 85% B, 8.1-13 min: 75% B, 13.5-35 min: 0% B, 36-46 min: 95% B, 46.1 min: end. The flow rate was 200 μl/min. Pump pressures ranged from 920-2600 psi over the course of the gradient. All the samples were kept at 4° C. during analysis. The chromatographic peaks were identified using MultiQuant (v3.0, Sciex), confirmed by manual inspection, and the peak areas integrated. […]
# [1] = S-Adenosylhomocysteine, 6-weeks
# [2] = SAM, SAH, Methionine, Cysteine, Glutathione, 2-days
# [3] = SAM, SAH, Methionine, Cysteine, Glutathione, 6-weeks
# [4] = Sphingomyelin Metabolism, 2-days
# [5] = Sphingomyelin Metabolism, 6-weeks
# [6] = Subtotal, all pathways, 6-weeks
# [7] = Subtotals, all pathways, 2-days
# [8] = Taurine, Hypotaurine Metabolism, 2-days
# [9] = Tryptophan, Kynurenine, Serotonin, Melatonin, 6-weeks
# [10] = Tryptophan, Kynurenine, Serotonin, 2-days
# [11] = Tyrosine and Phenylalanine Metabolism, 2-days
compound,measurement,setting,value
"Cc1ccc(C(=O)Nc2ccc(S(=O)(=O)O)c3cc(S(=O)(=O)O)cc(S(=O)(=O)O)c23)cc1NC(=O)c1cccc(NC(=O)Nc2cccc(C(=O)Nc3cc(C(=O)Nc4ccc(S(=O)(=O)O)c5cc(S(=O)(=O)O)cc(S(=O)(=O)O)c45)ccc3C)c2)c1 [Suramin, suramin]",Fraction of Impact (VIP Score) Explained (% of 119.7),"Purine Metabolism, 2-days",15%
same,Impact (Sum VIP Score),"Purine Metabolism, 2-days",17.6
same,Increased,"Purine Metabolism, 2-days",4
same,Observed Hits in the Top 61 Metabolites,"Purine Metabolism, 2-days",9
same,Decreased,"Purine Metabolism, 6-weeks",2
same,Fold Enrichment (Obs/Exp),"Purine Metabolism, 6-weeks",1.7
same,Fraction of Impact (VIP Score) Explained (% of 94.6),"Purine Metabolism, 6-weeks",11%
same,Impact (Sum VIP Score),"Purine Metabolism, 6-weeks",10.2
same,Increased,"Purine Metabolism, 6-weeks",3
same,Observed Hits in the Top 48 Metabolites,"Purine Metabolism, 6-weeks",5
same,Linear Ratio,"Purine, 6-weeks",1.307
same,VIP Score,"Purine, 6-weeks",1.980
same,Z Abs,"Purine, 6-weeks",1.650
same,Z Score,"Purine, 6-weeks",1.650
same,Decreased,"Pyrimidine Metabolism, 2-days",1
same,Fold Enrichment (Obs/Exp),"Pyrimidine Metabolism, 2-days",1.6
same,Fraction of Impact (VIP Score) Explained (% of 119.7),"Pyrimidine Metabolism, 2-days",4%
same,Impact (Sum VIP Score),"Pyrimidine Metabolism, 2-days",4.3
same,Increased,"Pyrimidine Metabolism, 2-days",1
same,Observed Hits in the Top 61 Metabolites,"Pyrimidine Metabolism, 2-days",2
same,Decreased,"Pyrimidine Metabolism, 6-weeks",0
same,Fold Enrichment (Obs/Exp),"Pyrimidine Metabolism, 6-weeks",2.0
same,Fraction of Impact (VIP Score) Explained (% of 94.6),"Pyrimidine Metabolism, 6-weeks",4%
same,Impact (Sum VIP Score),"Pyrimidine Metabolism, 6-weeks",4.2
same,Increased,"Pyrimidine Metabolism, 6-weeks",2
same,Observed Hits in the Top 48 Metabolites,"Pyrimidine Metabolism, 6-weeks",2
same,Linear Ratio,[1],1.417
same,VIP Score,[1],1.894
same,Z Abs,[1],0.971
same,Z Score,[1],0.971
same,Decreased,[2],1
same,Fold Enrichment (Obs/Exp),[2],1.4
same,Fraction of Impact (VIP Score) Explained (% of 119.7),[2],5%
same,Impact (Sum VIP Score),[2],5.6
same,Increased,[2],2
same,Observed Hits in the Top 61 Metabolites,[2],3
same,Decreased,[3],0
same,Fold Enrichment (Obs/Exp),[3],3.0
same,Fraction of Impact (VIP Score) Explained (% of 94.6),[3],10%
same,Impact (Sum VIP Score),[3],9.5
same,Increased,[3],5
same,Observed Hits in the Top 48 Metabolites,[3],5
same,Linear Ratio,"SM(d18:1/18:2), 6-weeks",1.424
same,VIP Score,"SM(d18:1/18:2), 6-weeks",1.508
same,Z Abs,"SM(d18:1/18:2), 6-weeks",0.750
same,Z Score,"SM(d18:1/18:2), 6-weeks",0.750
same,Linear Ratio,"SM(d18:1/26:0 OH), 6-weeks",1.671
same,VIP Score,"SM(d18:1/26:0 OH), 6-weeks",2.622
same,Z Abs,"SM(d18:1/26:0 OH), 6-weeks",2.002
same,Z Score,"SM(d18:1/26:0 OH), 6-weeks",2.002
same,Decreased,[4],2
same,Fold Enrichment (Obs/Exp),[4],0.4
same,Fraction of Impact (VIP Score) Explained (% of 119.7),[4],3%
same,Impact (Sum VIP Score),[4],3.6
same,Increased,[4],0
same,Observed Hits in the Top 61 Metabolites,[4],2
same,Decreased,[5],0
same,Fold Enrichment (Obs/Exp),[5],0.5
same,Fraction of Impact (VIP Score) Explained (% of 94.6),[5],4%
same,Impact (Sum VIP Score),[5],4.1
same,Increased,[5],2
same,Observed Hits in the Top 48 Metabolites,[5],2
same,Decreased,[6],6
same,Increased,[6],42
same,Decreased,[7],23
same,Increased,[7],38
same,Decreased,[8],1
same,Fold Enrichment (Obs/Exp),[8],3.5
same,Fraction of Impact (VIP Score) Explained (% of 119.7),[8],2%
same,Impact (Sum VIP Score),[8],2.0
same,Increased,[8],0
same,Observed Hits in the Top 61 Metabolites,[8],1
same,Linear Ratio,"Tiglylglycine, 6-weeks",1.302
same,VIP Score,"Tiglylglycine, 6-weeks",1.878
same,Z Abs,"Tiglylglycine, 6-weeks",1.310
same,Z Score,"Tiglylglycine, 6-weeks",1.310
same,Decreased,[9],0
same,Fold Enrichment (Obs/Exp),[9],1.5
same,Fraction of Impact (VIP Score) Explained (% of 94.6),[9],2%
same,Impact (Sum VIP Score),[9],2.1
same,Increased,[9],1
same,Observed Hits in the Top 48 Metabolites,[9],1
same,Decreased,[10],0
same,Fold Enrichment (Obs/Exp),[10],1.2
same,Fraction of Impact (VIP Score) Explained (% of 119.7),[10],1%
same,Impact (Sum VIP Score),[10],1.6
same,Increased,[10],1
same,Observed Hits in the Top 61 Metabolites,[10],1
same,Decreased,[11],0
same,Fold Enrichment (Obs/Exp),[11],2.4
same,Fraction of Impact (VIP Score) Explained (% of 119.7),[11],2%
same,Impact (Sum VIP Score),[11],1.8
